What all share (assay): KINOMEscan competitive binding, whole panel
Assay [1] deals with T1, panel of 203 kinases (Homo sapiens, UniProt P06239).
T1 construct: purchased DiscoverX (KINOMEscan)
Particulars: 10 µM, n=1; kinase LCK; read-out: Percent inhibition LCK. In short, it runs like this:
(§1)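 First, kinases were produced as T7 bacteriophage fusion proteins. Then compounds were added to compete them off probe ligands immobilized on a solid support at the ATP site. Finally, bound kinase was measured and converted to percentage inhibition.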

Assay [2] has as its target T2, panel of 203 kinases (Homo sapiens, UniProt P78368).
T2 construct: purchased DiscoverX (KINOMEscan)
Particulars: 10 µM, n=1; kinase CSNK1G2; read-out: Percent inhibition CSNK1G2. An outline of the steps:
as §1

The target in assay [3] is T3, panel of 203 kinases (Homo sapiens, UniProt Q9Y4K4).
T3 construct: purchased DiscoverX (KINOMEscan)
To be noted: 10 µM, n=1; kinase MAP4K5; read-out: Percent inhibition MAP4K5. In short, it runs like this:
as §1

For assay [4], the target named is T4, panel of 203 kinases (Homo sapiens, UniProt Q8N5S9).
T4 construct: purchased DiscoverX (KINOMEscan)
Particulars: 10 µM, n=1; kinase CAMKK1; read-out: Percent inhibition CAMKK1. In short, it runs like this: as §1

For assay [5], the target named is T5, panel of 203 kinases (Homo sapiens, UniProt P29322).
T5 construct: purchased DiscoverX (KINOMEscan)
T5 sequence (P29322 28-1005): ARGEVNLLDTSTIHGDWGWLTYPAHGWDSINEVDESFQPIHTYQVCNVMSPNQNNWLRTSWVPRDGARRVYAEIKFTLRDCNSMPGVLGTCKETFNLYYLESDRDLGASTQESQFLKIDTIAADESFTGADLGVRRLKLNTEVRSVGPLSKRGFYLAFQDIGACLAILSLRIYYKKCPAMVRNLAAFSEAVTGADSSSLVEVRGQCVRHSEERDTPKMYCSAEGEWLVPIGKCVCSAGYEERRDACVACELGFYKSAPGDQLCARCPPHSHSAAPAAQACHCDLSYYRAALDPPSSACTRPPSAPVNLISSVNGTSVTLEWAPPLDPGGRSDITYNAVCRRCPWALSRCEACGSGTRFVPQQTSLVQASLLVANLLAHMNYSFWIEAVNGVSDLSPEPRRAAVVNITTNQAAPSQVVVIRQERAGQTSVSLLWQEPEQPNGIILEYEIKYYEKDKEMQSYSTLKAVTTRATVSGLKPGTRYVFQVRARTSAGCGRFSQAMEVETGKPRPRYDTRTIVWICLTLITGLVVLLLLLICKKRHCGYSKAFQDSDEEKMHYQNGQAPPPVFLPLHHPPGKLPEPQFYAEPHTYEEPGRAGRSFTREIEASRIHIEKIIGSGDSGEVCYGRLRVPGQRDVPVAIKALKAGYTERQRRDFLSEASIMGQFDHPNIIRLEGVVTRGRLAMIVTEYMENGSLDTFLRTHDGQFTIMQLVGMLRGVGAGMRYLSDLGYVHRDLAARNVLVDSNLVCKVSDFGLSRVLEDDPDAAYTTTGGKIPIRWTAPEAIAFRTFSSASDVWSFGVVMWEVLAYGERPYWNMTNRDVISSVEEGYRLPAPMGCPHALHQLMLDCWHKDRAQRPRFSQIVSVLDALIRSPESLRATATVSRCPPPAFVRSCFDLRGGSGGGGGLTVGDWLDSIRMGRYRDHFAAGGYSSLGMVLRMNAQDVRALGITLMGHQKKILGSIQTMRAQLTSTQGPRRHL
Particulars: 10 µM, n=1; kinase EPHA8; read-out: Percent inhibition EPHA8. An outline of the steps:
as §1

Assay [6] addresses T6, panel of 203 kinases (Homo sapiens, UniProt O15146).
T6 construct: purchased DiscoverX (KINOMEscan)
T6 sequence (O15146 24-869): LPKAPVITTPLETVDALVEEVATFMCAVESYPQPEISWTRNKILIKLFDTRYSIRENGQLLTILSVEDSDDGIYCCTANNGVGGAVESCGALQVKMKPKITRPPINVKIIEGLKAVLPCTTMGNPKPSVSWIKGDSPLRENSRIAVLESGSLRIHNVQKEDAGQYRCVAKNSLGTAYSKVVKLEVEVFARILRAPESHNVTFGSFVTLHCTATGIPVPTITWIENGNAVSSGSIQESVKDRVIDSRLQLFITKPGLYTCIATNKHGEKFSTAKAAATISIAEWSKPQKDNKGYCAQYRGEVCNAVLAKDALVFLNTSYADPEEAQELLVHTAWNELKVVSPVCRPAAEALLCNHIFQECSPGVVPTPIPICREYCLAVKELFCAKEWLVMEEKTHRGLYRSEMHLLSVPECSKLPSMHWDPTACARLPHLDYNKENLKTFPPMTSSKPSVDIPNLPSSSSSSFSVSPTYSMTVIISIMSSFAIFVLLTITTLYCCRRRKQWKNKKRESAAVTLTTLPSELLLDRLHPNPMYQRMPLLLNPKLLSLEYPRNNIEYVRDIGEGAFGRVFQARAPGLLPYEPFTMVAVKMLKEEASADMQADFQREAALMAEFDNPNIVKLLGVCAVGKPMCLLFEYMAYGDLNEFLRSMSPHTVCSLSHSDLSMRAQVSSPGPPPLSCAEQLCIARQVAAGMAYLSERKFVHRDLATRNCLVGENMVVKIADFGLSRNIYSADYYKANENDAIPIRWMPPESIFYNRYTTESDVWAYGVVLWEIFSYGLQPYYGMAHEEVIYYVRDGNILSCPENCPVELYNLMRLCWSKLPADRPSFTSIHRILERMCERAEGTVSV
Particulars: 10 µM, n=1; kinase MUSK; read-out: Percent inhibition MUSK. An outline of the steps:
as §1

Assay [7] deals with T7, panel of 203 kinases (Homo sapiens, UniProt P42685).
T7 construct: purchased DiscoverX (KINOMEscan)
To be noted: 10 µM, n=1; kinase FRK; read-out: Percent inhibition FRK. In short, it runs like this: as §1

Assay [8] has as its target T8, panel of 203 kinases (Homo sapiens, UniProt P22607).
T8 construct: purchased DiscoverX (KINOMEscan)
Particulars: 10 µM, n=1; kinase FGFR3; read-out: Percent inhibition FGFR3. In short, it runs like this:
as §1

The target of assay [9] is T9, panel of 203 kinases (Homo sapiens, UniProt Q9HAZ1).
T9 construct: purchased DiscoverX (KINOMEscan)
To be noted: 10 µM, n=1; kinase CLK4; read-out: Percent inhibition CLK4. In short, it runs like this:
as §1

Assay [10] deals with T10, panel of 203 kinases (Homo sapiens, UniProt P45983).
T10 construct: purchased DiscoverX (KINOMEscan)
Particulars: 10 µM, n=1; kinase JNK1; read-out: Percent inhibition JNK1. An outline of the steps: as §1

For assay [11], the target named is T11, panel of 203 kinases (Homo sapiens, UniProt P53671).
T11 construct: purchased DiscoverX (KINOMEscan)
Particulars: 10 µM, n=1; kinase LIMK2; read-out: Percent inhibition LIMK2. In short, it runs like this: as §1

Assay [12] has as its target T12, panel of 203 kinases (Homo sapiens, UniProt P07333).
T12 construct: purchased DiscoverX (KINOMEscan)
To be noted: 10 µM, n=1; kinase CSF1R; read-out: Percent inhibition CSF1R. An outline of the steps: as §1

T9 sequence (Q9HAZ1 whole entry): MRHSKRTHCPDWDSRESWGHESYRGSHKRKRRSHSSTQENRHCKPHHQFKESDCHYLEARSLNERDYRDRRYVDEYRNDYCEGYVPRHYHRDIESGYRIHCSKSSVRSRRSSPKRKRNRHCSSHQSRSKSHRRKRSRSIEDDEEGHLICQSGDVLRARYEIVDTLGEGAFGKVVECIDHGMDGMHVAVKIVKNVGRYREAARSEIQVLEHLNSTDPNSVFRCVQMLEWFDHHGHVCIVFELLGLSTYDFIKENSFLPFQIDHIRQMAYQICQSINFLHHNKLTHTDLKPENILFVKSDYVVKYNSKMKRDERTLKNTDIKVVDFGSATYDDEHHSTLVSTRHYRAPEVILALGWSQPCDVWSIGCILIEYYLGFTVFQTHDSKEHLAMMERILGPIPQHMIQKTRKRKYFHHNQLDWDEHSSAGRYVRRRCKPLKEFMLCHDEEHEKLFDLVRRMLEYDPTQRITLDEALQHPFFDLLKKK
T8 sequence (P22607 23-806): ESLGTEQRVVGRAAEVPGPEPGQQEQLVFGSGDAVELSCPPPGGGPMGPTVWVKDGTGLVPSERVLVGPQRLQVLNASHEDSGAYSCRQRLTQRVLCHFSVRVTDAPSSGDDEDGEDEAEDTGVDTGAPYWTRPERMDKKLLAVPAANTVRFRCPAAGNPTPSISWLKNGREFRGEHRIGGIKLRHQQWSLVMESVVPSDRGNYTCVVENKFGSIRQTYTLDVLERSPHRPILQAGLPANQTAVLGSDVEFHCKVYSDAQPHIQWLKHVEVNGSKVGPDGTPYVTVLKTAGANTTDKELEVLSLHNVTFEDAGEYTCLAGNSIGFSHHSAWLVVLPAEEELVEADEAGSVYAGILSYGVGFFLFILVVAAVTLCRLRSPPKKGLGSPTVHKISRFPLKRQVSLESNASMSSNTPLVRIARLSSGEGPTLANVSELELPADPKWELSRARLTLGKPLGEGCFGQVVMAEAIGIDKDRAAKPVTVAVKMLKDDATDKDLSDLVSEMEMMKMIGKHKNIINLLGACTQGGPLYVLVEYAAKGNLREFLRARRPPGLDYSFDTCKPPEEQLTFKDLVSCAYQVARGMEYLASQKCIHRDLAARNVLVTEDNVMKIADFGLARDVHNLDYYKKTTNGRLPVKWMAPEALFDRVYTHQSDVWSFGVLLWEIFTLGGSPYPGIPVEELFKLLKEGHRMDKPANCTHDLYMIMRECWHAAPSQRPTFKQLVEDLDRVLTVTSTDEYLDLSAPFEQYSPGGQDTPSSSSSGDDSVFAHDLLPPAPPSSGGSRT
T3 sequence (Q9Y4K4 whole entry): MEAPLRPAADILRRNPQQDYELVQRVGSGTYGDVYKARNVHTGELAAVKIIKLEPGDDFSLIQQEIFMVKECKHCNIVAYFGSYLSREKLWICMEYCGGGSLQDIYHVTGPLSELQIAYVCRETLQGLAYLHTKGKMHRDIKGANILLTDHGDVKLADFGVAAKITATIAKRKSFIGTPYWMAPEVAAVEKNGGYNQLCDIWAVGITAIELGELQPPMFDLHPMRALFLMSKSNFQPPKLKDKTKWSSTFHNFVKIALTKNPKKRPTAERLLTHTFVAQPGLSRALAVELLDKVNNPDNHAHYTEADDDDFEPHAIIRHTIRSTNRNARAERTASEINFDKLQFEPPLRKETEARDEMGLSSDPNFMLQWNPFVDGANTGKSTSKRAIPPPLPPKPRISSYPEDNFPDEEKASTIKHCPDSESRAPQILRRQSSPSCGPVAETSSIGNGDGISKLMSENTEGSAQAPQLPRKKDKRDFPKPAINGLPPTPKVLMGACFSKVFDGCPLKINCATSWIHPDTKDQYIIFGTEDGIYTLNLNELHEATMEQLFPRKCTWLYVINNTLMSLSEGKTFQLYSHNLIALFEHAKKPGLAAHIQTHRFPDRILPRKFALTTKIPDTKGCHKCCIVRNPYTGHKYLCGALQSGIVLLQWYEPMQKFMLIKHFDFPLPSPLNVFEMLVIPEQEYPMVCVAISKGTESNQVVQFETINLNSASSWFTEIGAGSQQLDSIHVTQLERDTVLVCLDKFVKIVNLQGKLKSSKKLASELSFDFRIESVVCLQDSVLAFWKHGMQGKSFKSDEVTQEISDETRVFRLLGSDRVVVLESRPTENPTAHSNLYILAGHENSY
T12 sequence (P07333 20-972): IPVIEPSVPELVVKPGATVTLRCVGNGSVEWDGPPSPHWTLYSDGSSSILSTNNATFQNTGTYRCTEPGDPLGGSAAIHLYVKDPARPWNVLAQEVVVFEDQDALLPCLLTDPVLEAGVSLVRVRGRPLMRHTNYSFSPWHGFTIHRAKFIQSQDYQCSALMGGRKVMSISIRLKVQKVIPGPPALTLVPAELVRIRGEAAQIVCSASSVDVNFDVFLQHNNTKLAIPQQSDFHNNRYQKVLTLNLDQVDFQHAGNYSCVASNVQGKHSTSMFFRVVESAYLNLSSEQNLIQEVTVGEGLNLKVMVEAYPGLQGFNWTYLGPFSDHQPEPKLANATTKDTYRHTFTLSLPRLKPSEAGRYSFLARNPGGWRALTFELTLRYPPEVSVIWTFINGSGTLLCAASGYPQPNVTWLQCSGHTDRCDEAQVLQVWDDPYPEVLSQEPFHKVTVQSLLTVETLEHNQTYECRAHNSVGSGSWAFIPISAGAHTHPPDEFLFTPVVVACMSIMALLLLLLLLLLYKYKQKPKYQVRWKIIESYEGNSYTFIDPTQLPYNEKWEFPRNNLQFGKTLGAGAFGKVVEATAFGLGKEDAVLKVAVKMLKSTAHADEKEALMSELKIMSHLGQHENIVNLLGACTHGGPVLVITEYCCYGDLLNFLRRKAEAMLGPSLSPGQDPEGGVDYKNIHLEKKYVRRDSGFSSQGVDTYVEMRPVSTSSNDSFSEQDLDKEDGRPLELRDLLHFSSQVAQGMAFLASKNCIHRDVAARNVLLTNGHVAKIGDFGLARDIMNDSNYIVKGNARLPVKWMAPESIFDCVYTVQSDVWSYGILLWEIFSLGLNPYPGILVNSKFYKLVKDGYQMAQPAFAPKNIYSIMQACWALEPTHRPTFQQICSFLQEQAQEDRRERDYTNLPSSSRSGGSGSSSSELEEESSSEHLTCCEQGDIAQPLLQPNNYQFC
T4 sequence (Q8N5S9 whole entry): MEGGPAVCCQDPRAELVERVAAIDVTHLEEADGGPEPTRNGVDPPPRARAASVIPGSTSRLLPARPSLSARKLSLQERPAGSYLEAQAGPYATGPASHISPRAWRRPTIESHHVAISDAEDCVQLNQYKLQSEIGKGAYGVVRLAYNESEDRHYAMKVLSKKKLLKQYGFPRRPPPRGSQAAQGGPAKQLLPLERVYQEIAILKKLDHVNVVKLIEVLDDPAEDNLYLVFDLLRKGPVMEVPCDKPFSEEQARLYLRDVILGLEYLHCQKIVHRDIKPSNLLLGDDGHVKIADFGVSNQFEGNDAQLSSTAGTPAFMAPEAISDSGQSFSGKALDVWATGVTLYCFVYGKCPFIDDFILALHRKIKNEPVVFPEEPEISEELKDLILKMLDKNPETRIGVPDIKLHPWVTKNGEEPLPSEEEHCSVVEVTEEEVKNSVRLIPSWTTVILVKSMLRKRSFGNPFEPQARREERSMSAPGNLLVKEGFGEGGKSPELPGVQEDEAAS
T7 sequence (P42685 whole entry): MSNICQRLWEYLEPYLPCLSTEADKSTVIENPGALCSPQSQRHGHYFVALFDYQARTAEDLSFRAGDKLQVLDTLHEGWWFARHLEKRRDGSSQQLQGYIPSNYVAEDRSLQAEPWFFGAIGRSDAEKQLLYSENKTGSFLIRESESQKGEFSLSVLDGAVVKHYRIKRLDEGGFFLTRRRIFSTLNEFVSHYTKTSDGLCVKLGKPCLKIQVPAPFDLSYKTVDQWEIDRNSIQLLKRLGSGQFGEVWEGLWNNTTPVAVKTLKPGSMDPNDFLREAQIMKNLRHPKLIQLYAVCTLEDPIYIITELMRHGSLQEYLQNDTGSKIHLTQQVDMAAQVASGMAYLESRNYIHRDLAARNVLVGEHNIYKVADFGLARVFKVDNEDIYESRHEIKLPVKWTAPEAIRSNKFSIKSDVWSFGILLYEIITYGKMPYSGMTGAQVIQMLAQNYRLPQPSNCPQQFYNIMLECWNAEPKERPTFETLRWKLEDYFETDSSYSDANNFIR
T11 sequence (P53671 whole entry): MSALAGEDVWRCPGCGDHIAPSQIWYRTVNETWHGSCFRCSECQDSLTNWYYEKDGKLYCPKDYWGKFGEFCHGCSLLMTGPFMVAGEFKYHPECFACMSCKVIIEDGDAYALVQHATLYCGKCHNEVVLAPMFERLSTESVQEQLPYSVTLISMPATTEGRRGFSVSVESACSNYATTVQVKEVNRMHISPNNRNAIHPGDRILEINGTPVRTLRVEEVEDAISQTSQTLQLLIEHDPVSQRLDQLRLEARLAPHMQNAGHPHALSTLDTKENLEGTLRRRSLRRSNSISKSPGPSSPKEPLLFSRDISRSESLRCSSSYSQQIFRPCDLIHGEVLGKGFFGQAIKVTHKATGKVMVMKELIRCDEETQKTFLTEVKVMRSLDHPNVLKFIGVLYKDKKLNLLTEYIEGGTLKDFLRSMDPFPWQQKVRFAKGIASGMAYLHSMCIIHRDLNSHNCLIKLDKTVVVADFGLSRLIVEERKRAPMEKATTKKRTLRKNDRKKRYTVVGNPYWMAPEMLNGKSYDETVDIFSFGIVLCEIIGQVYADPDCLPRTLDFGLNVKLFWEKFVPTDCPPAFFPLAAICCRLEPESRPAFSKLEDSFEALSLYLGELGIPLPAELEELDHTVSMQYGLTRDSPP

The term inhibition denotes the relative decrease from the control value, in per cent. For the molecule `CN1CCN(c2ccc(Nc3nccc(-c4cnn5ncccc45)n3)cc2C#N)CC1` [Compound 1], the inhibition at 10 µM in assay [1] was 97.6%; in assay [2], 88.3%; in assay [3] it was 93%; in [4], 99.2%; in [5], 0%; in assay [6] it was 98.8%. Besides, the inhibition at 10 µM came to 91.8% in assay [7]; 0% in assay [8]; 99.5% in assay [9]; 100% in assay [10]; 100% in assay [11]; 99.4% in assay [12].

With `COc1ccc(Nc2nccc(-c3cnn4ncccc34)n2)cc1` [Compound 2], the inhibition at 10 µM in assay [1] amounted to 0%; in assay [2], 93.6%; in assay [3], 0%; in assay [4], 97.4%; in [5] it was 0%; in [6], 74.8%. For the same molecule, the inhibition at 10 µM stood at 0% in [7]; 67.6% in [8]; 98.7% in [9]; 98.5% in [10]; 88% in assay [11]; 99.8% in [12].

With `Cc1ccc(O)cc1Nc1ccnc(Nc2cccc(C(N)=O)c2)n1` [Compound 3], the inhibition at 10 µM in assay [1] amounted to 99.6%; in [2], 93.3%; in [3], 94.6%; in assay [4] it was 0%; in assay [5] it was 100%; in assay [6] it was 0%. Moreover, the inhibition at 10 µM came out at 99.6% in assay [7]; 0% in assay [8]; 0% in [9]; 76.7% in assay [10]; 96.6% in [11]; 98.9% in assay [12].

`Cc1ccc(O)cc1N(C)c1ccnc(Nc2cccc(S(N)(=O)=O)c2)n1` [Compound 4]: the inhibition at 10 µM in [1] amounted to 99.8%; in [2], 75.8%; in assay [3], 99.1%; in assay [4] it was 0%; in assay [5], 100%; in assay [6], 0%. Besides, the inhibition at 10 µM in [7] came out at 99.5%; in assay [8], 65.4%; in assay [9] it was 0%; in [10] it was 87.1%; in [11], 96%; in assay [12], 100%.

In the case of `Fc1cccc(COc2ccc(Nc3ncnc4c3CN(CCN3CCOCC3)CC4)cc2Cl)c1` [Compound 6], the inhibition at 10 µM in [1], in assay [2], in assay [3], in assay [4], in [5] and in [6] was 0% in each case. Also, the inhibition at 10 µM in assay [7] amounted to 0%; in assay [8], 96.3%; in assay [9], 0%; in [10], 0%; in [11], 0%; in [12], 0%.

Consider `COc1cc(Nc2nccc(-c3sc(N)nc3-c3cccc(NC(=O)c4c(F)cccc4F)c3)n2)cc(OC)c1OC` [Compound 7], for which the inhibition at 10 µM in assay [1] was determined as 99.5%; in [2], 0%; in [3], 99.9%; in [4], 0%; in assay [5], 100%; in [6], 97.2%. Moreover, the inhibition at 10 µM in assay [7] was determined as 100%; in assay [8], 100%; in [9] it was 0%; in [10], 100%; in [11], 100%; in assay [12] it was 100%.

As to `C[C@@H](Oc1cc(-c2cnc3ccccn23)sc1C(N)=O)c1ccccc1Cl` [Compound 8], the inhibition at 10 µM in [1] amounted to 0%; in assay [2], 0%; in assay [3], 82.7%; in assay [4] it was 0%; in [5], 0%; in assay [6] it was 0%. For the same molecule, the inhibition at 10 µM in assay [7] is 0%; in assay [8] it was 0%; in [9], 81%; in [10], 0%; in assay [11] it was 0%; in assay [12], 0%.

For `c1ccc(COc2cccc(-c3ccnc4[nH]ccc34)c2)cc1` [Compound 9], the inhibition at 10 µM in [1], in assay [2], in assay [3], in assay [4], in assay [5] and in assay [6] was 0% in each case. The inhibition at 10 µM in assay [7], in assay [8], in assay [9], in assay [10], in [11] and in assay [12] was 0% throughout.

On to `Clc1ccc(Nc2ncc(-c3ccccc3)s2)cc1` [Compound 10], for which the inhibition at 10 µM in assay [1], in assay [2], in assay [3], in [4], in assay [5] and in assay [6] was 0% in each case. In addition, the inhibition at 10 µM in assay [7], in assay [8], in assay [9], in [10], in assay [11] and in [12] was 0% throughout.
